Experimental data: patent EP0154476A2, “Steroid compound” (STERWIN AG., priority 1984, dated 1985)

Tests used:
[1] = cytochemical bioassay in unfixed tissue sections of dioestrous rat ovary (formazan dye absorbance); format: biochemical; details: versus trilostane, weight for weight basis, standard curves 0.15 to 2.5 µM (nM), 95% confidence 1.4-2.1
Procedure: In a first study, a cytochemical bioassay was employed to determine the relative potency of the 17- keto trilostane metabolite versus trilostane, in three experiments. From the results obtained, standard curves covering the range from 0.15 to 2.5nM were prepared for the metabolite and the parent compound. Potency estimates were calculated by computer analysis of the relative slopes and errors around each dose point.
The cytochemical bioassay is based upon the reaction, within serial unfixed tissue sections of the dioestrous rat ovary, between the enzyme, […] -A^5-3-oxosteroid isomerase (38 HSD) contained therein, and added substrate, cofactors and a colourless tetrazolium salt. The reaction leads to the deposition of an intensely coloured blue insoluble formazan dye in the sections, and the amount of dye produced within a section over a given period (absorbance) is measured by means of a scanning integrating densitometer. If an inhibitor of 3a HSD, such as trilostane or 17-keto trilostane metabolite is added to the system, the amount of blue dye formed will be reduced.
The bioassay curves obtained are as shown in Figure 1 of the accompanying drawings, results being expressed as the mean +SD(n=4).

[2] = test system: plasma cortisol; test: plasma cortisol by radioimmunoassay after oral trilostane in volunteers; format: in vivo, healthy male volunteers; details: trilostane 2 x 60 mg capsules orally, fasted, plasma up to 8 hours; during sustained plasma peaks of trilostane and 17-keto metabolite

Structure (SMILES)	relative in vitro potency compared with the parent compound [1]	relative in vitro potency compared with the parent compound ([1]; listed as metabolite) [times]	cortisol secretion [2]
C[C@]12CC[C@H]3[C@@H](CC[C@@]45O[C@@H]4C(=O)[C@H](C#N)C[C@]35C)[C@@H]1CCC2=O [17-keto metabolite, 2α-cyano-4α,5α-epoxyandrostan-3,17-dione]	about 1.7 times	1.71	–
C[C@]12CC[C@H]3[C@@H](CC[C@@]45O[C@@H]4C(O)=C(C#N)C[C@]35C)[C@@H]1CC[C@@H]2O [trilostane, 2a-cyano-4a,5a-epoxyandrostan-17a-ol-3-one]	–	–	suppressed
